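Briefly, cells in 96-well plates were exposed to five compound concentrations for 48 h, and endpoints were estimated by linear interpolation. GI50 is the concentration that inhibits growth by half.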 The source made the active and inactive calls. No stated cut-off is given here; in the data, active = GI50 up to about 1.1 µM and inactive = higher.
What was measured:
Experiment in all cases: NCI-60 cell line screen, 48 h
[1] = tested on: UACC-62
[2] = tested on: MDA-MB-231
[3] = tested on: OVCAR-4
[4] = tested on: SW-620
[5] = tested on: HOP-62
[6] = tested on: K562
[7] = tested on: HL-60
[8] = tested on: A498
[9] = tested on: CCRF-CEM
[10] = tested on: NCI-H460
[11] = tested on: Malme-3M
[12] = tested on: OVCAR-8
[13] = tested on: KM12
[14] = tested on: OVCAR-3
[15] = tested on: HCT-116
[16] = tested on: SF-295
[17] = tested on: SR
[18] = tested on: DU-145
[19] = tested on: IGROV-1
[20] = tested on: SK-OV-3

| Compound | GI50 [1] | GI50 [2] | GI50 [3] | GI50 [4] | GI50 [5] | GI50 [6] | GI50 [7] | GI50 [8] | GI50 [9] | GI50 [10] | GI50 [11] | GI50 [12] | GI50 [13] | GI50 [14] | GI50 [15] | GI50 [16] | GI50 [17] | GI50 [18] | GI50 [19] | GI50 [20] |
| --- | --- | --- | --- | --- | --- | --- | --- | --- | --- | --- | --- | --- | --- | --- | --- | --- | --- | --- | --- | --- |
| CC(C)(C)c1cc2c(O)c(c1)Cc1cc(C(C#N)(Cc3ccc4ccccc4c3)Cc3ccc4ccccc4c3)cc(c1O)Cc1cc(C(C)(C)C)cc(c1O)Cc1cc(C(C#N)(Cc3ccc4ccccc4c3)Cc3ccc4ccccc4c3)cc(c1O)C2 | > 100 µM (inactive) | > 100 µM (inactive) | > 100 µM (inactive) | > 100 µM (inactive) | > 100 µM (inactive) | > 100 µM (inactive) | > 100 µM (inactive) | > 100 µM (inactive) | > 100 µM (inactive) | > 100 µM (inactive) | > 100 µM (inactive) | > 100 µM (inactive) | > 100 µM (inactive) | > 100 µM (inactive) | > 100 µM (inactive) | > 100 µM (inactive) | 60.5 µM (inactive) | > 100 µM (inactive) | > 100 µM (inactive) | > 100 µM (inactive) |
| CC[C@@H]1CN(C)[C@H]2Cc3c([nH]c4ccccc34)C(=O)C[C@H]1C2C(=O)OC (stereo not given in full) | > 100 µM (inactive) | > 100 µM (inactive) | > 31.6 µM (inactive) | > 100 µM (inactive) | > 72.8 µM (inactive) | > 100 µM (inactive) | > 89.3 µM (inactive) | > 100 µM (inactive) | 96.6 µM (inactive) | > 100 µM (inactive) | > 100 µM (inactive) | > 100 µM (inactive) | > 100 µM (inactive) | > 100 µM (inactive) | > 100 µM (inactive) | > 54.2 µM (inactive) | > 100 µM (inactive) | > 100 µM (inactive) | > 100 µM (inactive) | > 100 µM (inactive) |
| O=C1NC(NNc2ccccc2)=N/C1=C\c1ccccc1O | 53.3 µM (inactive) | 68.2 µM (inactive) | 50.9 µM (inactive) | 58.1 µM (inactive) | 48.4 µM (inactive) | 50.2 µM (inactive) | 28.8 µM (inactive) | 45.9 µM (inactive) | 0.0183 µM (active) | 45.6 µM (inactive) | > 100 µM (inactive) | > 100 µM (inactive) | 33.2 µM (inactive) | 96.2 µM (inactive) | 48.2 µM (inactive) | 50.2 µM (inactive) | > 100 µM (inactive) | 67 µM (inactive) | 89.1 µM (inactive) | > 100 µM (inactive) |
| CCOC(=O)/C(=C\c1ccc(F)cc1)C(C)=O | 18.9 µM (inactive) | 22.6 µM (inactive) | 28 µM (inactive) | 16.5 µM (inactive) | 38.9 µM (inactive) | 30.3 µM (inactive) | 19.5 µM (inactive) | 17.8 µM (inactive) | 26.3 µM (inactive) | 32.5 µM (inactive) | 19.2 µM (inactive) | 29.2 µM (inactive) | 24.3 µM (inactive) | 32.8 µM (inactive) | 29.2 µM (inactive) | 29.5 µM (inactive) | 19 µM (inactive) | 23.2 µM (inactive) | 18.2 µM (inactive) | 35 µM (inactive) |
| CC(=O)Oc1ccc2c(c1)CC[C@@H]1C2[C@@H](O[N+](=O)[O-])C[C@@]2(C)C1CC[C@@H]2O (stereo not given in full) | 26.5 µM (inactive) | 39.1 µM (inactive) | 52.1 µM (inactive) | 35.5 µM (inactive) | 17.1 µM (inactive) | 11.9 µM (inactive) | 9.2 µM (inactive) | 31.2 µM (inactive) | 22.1 µM (inactive) | 35.3 µM (inactive) | 32.1 µM (inactive) | 31.3 µM (inactive) | 29.9 µM (inactive) | 35.1 µM (inactive) | 29.4 µM (inactive) | 35.5 µM (inactive) | 16.4 µM (inactive) | 28.7 µM (inactive) | 55.3 µM (inactive) | 62.5 µM (inactive) |

Source: ChEMBL document CHEMBL1201862, “PubChem BioAssay data set” (2004)
